Values quoted from earlier work in publication PMC9410468 (Marine Drugs, 2022).

System: rats
Details: rat, in vivo; cited from earlier work
Description: In the mammalian brain, the medial habenula (MHB) expresses high nAChR levels. Recently, α3-containing nAChRs present in the medial habenula have attracted substantial attention because of their potential role in influencing nicotine addiction. In addition, recent studies have shown that the gene polymorphism of the α3 and β4 subunits in vivo are related to nicotine addiction and drug abuse. The α3β4 nAChR subtype is mainly located in the MHB, […] (IPN), and fasciculus retroflexus (FR) of the rat brain. In addition, it is also expres ...

**Q.** Which “effect on nicotine self-administration (in words)” value does the source give for AT-1001 here?
**A.** The value was “reduce nicotine self-administration in rats”.
